According to article PMC10547238, “Discovery of Potent Tetrazole Free Fatty Acid Receptor 2 Antagonists” (Journal of Medicinal Chemistry, 2023):
Converted amounts (≈) assume the structure as drawn.

Assays:
human FFA2-eYFP = molecular target: T1, human FFA2-eYFP (Homo sapiens, UniProt O15552); test: [35S]GTPγS incorporation assay, membranes of Flp-In T-Rex 293 cells; assay type: biochemical; conditions: for GTPγS pIC50: hFFA2, propionate at EC80, mean ± SEM, three or more experiments; for LLEGTPγS: pIC50, GTPγS – ClogP
T1 construct: expressed in transfected cells; host or cells: membranes of Flp-In T-Rex 293 cells induced to express the construct
T1 sequence (O15552 1-330): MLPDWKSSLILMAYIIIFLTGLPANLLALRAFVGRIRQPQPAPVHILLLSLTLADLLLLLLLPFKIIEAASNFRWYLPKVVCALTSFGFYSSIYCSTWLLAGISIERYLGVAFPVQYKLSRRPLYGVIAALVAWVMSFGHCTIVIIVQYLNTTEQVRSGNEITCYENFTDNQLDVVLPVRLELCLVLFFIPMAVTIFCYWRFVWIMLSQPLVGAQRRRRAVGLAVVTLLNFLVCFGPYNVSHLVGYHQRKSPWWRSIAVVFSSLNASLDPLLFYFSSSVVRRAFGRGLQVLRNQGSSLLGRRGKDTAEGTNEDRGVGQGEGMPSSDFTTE
Method: (§1) The activity of the compounds on FFA2 was evaluated in two different functional antagonist assays, both using propionate at EC80 as the agonist. The GTPγS assay reflects receptor activation by directly assessing G protein recruitment, whereas the cAMP assay, performed in whole cells, reflects a physiologically relevant downstream second messenger.
Functional activity of the compounds were tested in a [^35S]GTPγS incorporation assay using membranes of Flp-In T-Rex 293 cells induced to express human FFA2-eYFP. […] The reaction was initiated by addition of [^35S]GTPγS (100 nCi per reaction) containing 1 μM GDP and incubated at 30 °C for 60 min. The reaction was terminated by rapid vacuum filtration through GF/C glass fiber filter-bottom 96-well microplates (PerkinElmer Life Sciences, Beaconsfield, UK) using a UniFilter FilterMate Harvester (PerkinElmer). Unbound radioligands were removed from filters by three washes with ice-cold PBS. MicroScint-20 (PerkinElmer) was added to dried filters, and [^35S]GTPγS binding was quantified by liquid scintillation spectroscopy.

hFFA2 = molecular target: T2, hFFA2 (Homo sapiens, UniProt O15552); test: cAMP assay, antagonist mode, Flp-In T-Rex 293 cells expressing hFFA2-eYFP; assay type: cell-based; conditions: for cAMP pIC50: hFFA2, antagonist mode, propionate at EC80, mean ± SEM, three or more experiments; for LLEcAMP: pIC50, cAMP – ClogP; for LLEcAMP-logD: pIC50, cAMP – logD7.4; for IC50: supplementary CSV, read-out: hFFA2 cAMP (pIC50) (converted)
T2 construct: expressed in transfected cells; host or cells: Flp-In T-Rex 293 cells, doxycycline-induced
T2 sequence (O15552 1-330): T1 sequence (O15552 1-330)
Method: as §1
The hFFA2-eYFP and hFFA3-eYFP Flp-In T-Rex 293 cell lines were maintained in Dulbecco’s modified Eagle mMedium (DMEM, ThermoFisher #11965092) supplemented with 10% (v/v) fetal bovine serum, 100 U/mL penicillin, 100 μg/mL streptomycin, 5 μg/mL blasticidin S, and 200 μg/mL hygromycin B and incubated at 37 °C and 5% CO2 in a humidified incubator. Cells were passaged at 70–80% confluency.
To determine the compound’s ability to activate or inhibit the Gi-coupled FFA2 or FFA3, intracellular cAMP concentrations were determined using Flp-In T-Rex293 cells induced to express hFFA2-eYFP or hFFA3-eYFP. Experiments were carried out using a homogeneous time-resolved FRET-based detection kit (CisBio, PerkinElmer #62AM9PEC) according to the manufacturer’s protocol. The day before the assay, 10,000 cells/well were plated in DMEM supplemented with penicillin/streptomycin (100 units/mL and […], respectively), 5 μg/mL blasticidin S, and 200 μg/mL hygromycin B in 96-well cell culture microplates (Greiner Bio-One) and induced to express hFFA2-eYFP or hFFA3-YFP with 100 ng/mL doxycycline.
In antagonist mode, the cells were pre-incubated for 20 min with antagonist test compounds in HBSS together with 50 μM IBMX at rt. Then, the cells were further incubated for 25 min at rt in HBSS with the agonist compound, sodium propionate at EC80 (51.4 μM for FFA2, 13.2 μM for FFA3), and 3 μM forskolin. Reactions were stopped, and the output was measured with an Envision plate reader using a time-resolved fluorescence protocol, measuring the light emission at 620 and 665 nm. All analyses were performed in triplicate and analyzed using GraphPad Prism (version 9).

[1] = Lipophilicity (logD7.4), octanol/PBS7.4 shake flask; assay type: physicochemical; conditions: 1-octanol/PBS7.4, pH 7.4; mean of two independent experiments
Method: The assay was performed in duplicates essentially as previously described.[58] A glass vial with a screw cap (8 mL) was charged with the test compound (40 μL, 10 mM in DMSO), PBS7.4 (0.01 M, 1980 μL), and 1-octanol (1980 μL). The vial was capped and sealed with a Parafilm and shaken at 700 rpm using an IKA KS 125 basic shaker for 24 h at 25 °C. The Parafilm was removed, and the sample was allowed to equilibrate for 1 h before analysis. One hundred microliters of the octanol phase was withdrawn and diluted 1:10 with MeOH (+0.1% TFA)/MilliQ water (4:1, v/v) and analyzed by HPLC. The interface was removed, and the PBS7.4 phase analyzed directly by HPLC. All analysis was performed in duplicates, and log D7.4 values were calculated from the peak areas (mAU·min) and adjusted for difference in injection volume and concentration-absorption effects from the solvents, using two calibration points per compound per solvent, and dilution of the octanol phase.

Microsomal stability = assay type: in vitro ADME, mouse
Method: The assay was performed in duplicates essentially as described previously,[58] using male CD1 mouse liver microsomes (Thermo Fischer Scientific, 20 mg/mL), NADPH-regenerating agent Solution A and Solution B (Promega), potassium phosphate buffer (100 mM, pH 7.4), and test compounds (1 mM, diluted from 10 mM DMSO stock in the buffer). The samples were analyzed in an Agilent 6130 Mass Spectrometer instrument using electron spray ionization (ESI) coupled to an Agilent 1200 HPLC system (ESI-LCMS) with a C18 reverse phase column (Zorbax Eclipse XBD-C18, 4.6 mm × 50 mm) using a linear gradient of the binary solvent system of 100% mobile phase A (water:MeCN:formic acid, 95:5:0.1 v/v%) to 100% mobile phase B (MeCN:formic acid, 100:0.1 v/v %) in 6 min, with a flow rate of 1 mL/min.
To a pre-warmed solution of potassium phosphate buffer (135.6 μL) in an Eppendorf tube at 37 °C were added Solution A (7.5 μL), Solution B (1.5 μL), microsomes (3.9 μL), and the test compound (1 mM, 1.5 μL, final concentration = 10 μM). The tube was briefly vortexed and incubated at 37 °C in a thermomixer. At 0, 15, 30, 45, and 60 min, 25 μL of each sample was transferred to an ice-cold solution containing an internal standard (5 μM in MeCN, 12.5 μL). The sample was briefly vortexed and centrifuged for 5 min at 10.000g. The supernatant (25 μL) was transferred to HPLC vial and analyzed by ESI-LCMS in single ion mode. The data was analyzed using GraphPad Prism (version 9).

[2] = Kinetic aqueous solubility; assay type: physicochemical; conditions: phosphate buffer; kinetic solubility in PBS at pH 7.4 and 25 °C
Method: Twenty microliters of a 10 mM compound stock solution in DMSO was added to an Eppendorf tube containing 980 μL of phosphate buffer (10 mM, pH = 7.4). The samples were incubated in an Eppendorf Thermomixer (25 °C, 800 rpm) for 24 h. Afterward, the samples were centrifuged for 5 min at 11,000 rpm and the supernatant was filtered (0.2 μm PTFE membrane) before analysis by HPLC. Each compound was analyzed in duplicate. The solubility was calculated from the peak area relative to the reference samples (200 μM in MeOH/MilliQ H2O, 60/40, v/v).

[3] = % recovered after 60 min, mouse liver microsomes

SMILES	GTPγS pIC50 (human FFA2-eYFP)	LLEGTPγS (human FFA2-eYFP)	increased potency over CATPB (3) (human FFA2-eYFP; vs 3)	increase in potency over TUG-1958 (4) (human FFA2-eYFP; vs 4)	cAMP pIC50 (hFFA2)	LLEcAMP (hFFA2)	LLEcAMP-logD (hFFA2)	IC50 (hFFA2)	logD at 25 h [1]	microsomal stability (Microsomal stability; [3])	microsomal stability (Microsomal stability; supplementary CSV)	solubility at 24 h [2]
Cc1cccc(CC(=O)N[C@@H](Cc2ccc(C(F)(F)F)cc2)Cc2nnn[nH]2)c1 [Compound 8, (S)-N-(1-(1H-Tetrazol-5-yl)-3-(4-(trifluoromethyl)phenyl)propan-2-yl)-2-(m-tolyl)acetamide]	8.07 ± 0.08	5.01	more than 10 fold	4 fold	8.30 ± 0.12	5.24	7.04	5.62 nM	1.26 ± 0.07	89%	89%	163 µM (≈ 65.8 µg/mL)
O=C(Cc1cccc(Cl)c1)N[C@@H](Cc1ccc(C(F)(F)F)cc1)Cc1nnn[nH]1 [Compound 16e, (S)-N-(1-(1H-Tetrazol-5-yl)-3-(4-(trifluoromethyl)phenyl)propan-2-yl)-2-(3-chlorophenyl)acetamide]	8.53 ± 0.19	5.25	–	–	8.15 ± 0.05	4.87	6.35	6.61 nM	1.8 ± 0.09	92%	92%	138 µM (≈ 58.5 µg/mL)
